Tests used:
HeLa S3 cells = assay: HeLa S3 cell growth inhibition test (neutral red staining); type: cell-based; conditions: Homo sapiens, 72 hours culture with test compound, neutral red absorbance at 550 nm
Procedure: Test Example 1: HeLa S3 Cell Growth Inhibition Test
Each 0.1 ml of HeLa S3 cells which had been prepared to 3 x 10^4 cells/ml using a medium consisted of MEM medium, 10% fetal bovine serum and 2 mM glutamine was distributed in each well of 96 well-microtiter plate. HeLa S3 was cultured at 37°C in a CO2 incubator for one night, each 0.05 ml of test compounds which had been appropriately diluted with the culture solution was added thereto and the mixture was cultured at 37°C for 72 hours in a CO2 incubator. Supernatant was removed, each 0.1 ml of the culture solution containing 0.02% neutral red was added to the residue, the mixture was incubated at 37°C for one hour in a CO2 incubator and the cells were stained. Supernatant was removed and the residue was washed once with physiological saline. Then, the pigment was extracted with 0.001 N hydrochloric acid/30% ethanol and the absorbance at 550 nm was measured by a microplatereader. A concentration of the test compound (IC50) at which the growth of cell is inhibited by 50% was calculated by comparing the absorbance of non-treated cells and that of cells treated with a predetermined concentration of the test compound.

P388 mouse leukemia = assay: Effect upon P388 ascites tumor (increased life span); type: in vivo; conditions: consecutive 5 days from 24 hours after implantation of the tumor, male CDF1 mice
Procedure: Test Example 2: Effect upon P388 Ascites Tumor […] The resultant suspension was administered once 24 hours after implantation of the tumor, or repeatedly for consecutive 5 days from 24 hours after implantation of the tumor. The average survival day (T) in a group was calculated from the survival days of the respective mice in the group administered with the test compound at each dose. On the other hand, the average survival day (C) of a group which was not administered was measured, and the increased life span [ILS (%)] was calculated according to the following equation: [(T - C)/C] x 100 (%) [formula]

| SMILES | IC50 (HeLa S3 cells) [nM] | other results |
| --- | --- | --- |
| CCOc1cc(C(=O)C(C)=Cc2c[nH]c3ccccc23)cc(OCC)c1OCC [Compound 4, 3-(Indol-3-yl)-2-methyl-1-(3,4,5-triethoxyphenyl)-2-propen-1-one] | 22 |  |
| CCOc1c(OC)cc(C(=O)C(C)=Cc2c[nH]c3cc(C)ccc23)cc1OC [Compound 11, 1-(4-Ethoxy-3,5-dimethoxyphenyl)-2-methyl-3-(6-methylindol-3-yl)-2-propen-1-one] | 6.7 |  |
| COc1cc(C(=O)C(C)=Cc2c[nH]c3cc(C)ccc23)cc2c1OCO2 [Compound 12, 1-(3-Methoxy-4,5-methylenedioxyphenyl)-2-methyl-3-(6-methylindol-3-yl)-2-propen-1-one] | 2.3 |  |
| COc1cc(C(=O)C(C)=Cc2c[nH]c3cc(C)ccc23)cc(OC)c1OCC(C)C [Compound 15, 1-(4-Isobutyloxy-3,5-dimethoxyphenyl)-2-methyl-3-(6-methylindol-3-yl)-2-methyl-2-propen-1-one] | 18 |  |
| CCOc1c(OC)cc(C(=O)C(C)=Cc2c[nH]c3cc(CC)ccc23)cc1OC [Compound 16, 1-(4-Ethoxy-3,5-dimethoxyphenyl)-3-(6-ethylindol-3-yl)-2-methyl-2-propen-1-one] | 6.2 |  |
| CCOc1c(OC)cc(C(=O)C(C)=Cc2c[nH]c3cc(Cl)ccc23)cc1OC [Compound 18, 3-(6-Chloroindol-3-yl)-1-(4-ethoxy-3,5-dimethoxyphenyl)-2-methyl-2-propen-1-one] | 6.3 |  |
| CCCOc1c(OC)cc(C(=O)C(C)=Cc2c[nH]c3cc(C)ccc23)cc1OC [Compound 19, 1-(3,5-Dimethoxy-4-propoxyphenyl)-2-methyl-3-(6-methylindol-3-yl)-2-propen-1-one] | 5.2 |  |
| CCCCOc1c(OC)cc(C(=O)C(C)=Cc2c[nH]c3cc(C)ccc23)cc1OC [Compound 20, 1-(4-Buthoxy-3,5-dimethoxyphenyl)-2-methyl-3-(6-methylindol-3-yl)-2-propen-1-one] | 6.1 |  |

The next lines start with results.

| IC50 (HeLa S3 cells) [nM] | SMILES | other results |
| --- | --- | --- |
| 2.5 | CCOc1c(OC)cc(C(=O)C(C)=Cc2c[nH]c3ccccc23)cc1OC [Compound 5, 1-(4-Ethoxy-3,5-dimethoxyphenyl)-3-(indol-3-yl)-2-methyl-2-propen-1-one] | ILS (%) [Dose (mg/kg)] five consec. admin. (P388 mouse leukemia; dose 3.1 mg/kg): 41 ( 3.1) % |
| 9.4 | COc1cc(C(=O)C(C)=Cc2c[nH]c3ccccc23)cc(OC)c1OCC(C)C [Compound 6, 3-(Indol-3-yl)-1-(4-isobutyloxy-3,5-dimethoxyphenyl)-2-methyl-2-propen-1-one] | ILS (%) [Dose (mg/kg)] five consec. admin. (P388 mouse leukemia; dose 3.1 mg/kg): 43 ( 3.1) % |
| 64 | CCc1c(OC)cc(C(=O)C(C)=Cc2c[nH]c3ccccc23)cc1OC [Compound 7, 1-(4-Ethyl-3-dimethoxyphenyl)-3-(indol-3-yl)-2-methyl-2-propen-1-one] | ILS (%) [Dose (mg/kg)] five consec. admin. (P388 mouse leukemia; dose 25 mg/kg): 40 ( 25) % |
| 6.1 | COc1cc(C(=O)C(C)=Cc2c[nH]c3ccccc23)cc2c1OCO2 [Compound 8, 3-(Indol-3-yl)-1-(3-methoxy-4,5-methylenedioxyphenyl)-2-methyl-2-propen-1-one] | ILS (%) [Dose (mg/kg)] five consec. admin. (P388 mouse leukemia; dose 6.3 mg/kg): 50 ( 6.3) % |
| 3.2 | CCOc1cc(C(=O)C(C)=Cc2c[nH]c3ccccc23)cc(OC)c1OC [Compound 9, 1-(5-Ethoxy-3,4-dimethoxyphenyl)-3-(indol-3-yl)-2-methyl-2-propen-1-one] |  |
| 6.6 | COc1cc(C(=O)C(C)=Cc2c[nH]c3ccccc23)cc(Br)c1OC [Compound 10, 1-(3-Bromo-4-dimethoxyphenyl)-3-(indol-3-yl)-2-methyl-2-propen-1-one] |  |
| 22 | COc1ccc(C(=O)C(C)=Cc2c[nH]c3ccccc23)c(OC)c1OC [Compound 24, 3-(Indol-3-yl)-2-methyl-1-(2,3,4-trimethoxyphenyl)-2-propen-1-one] |  |
